{"source": "patent US11786503B2", "about": "“Pharmaceutical compositions and methods for countering chemotherapy induced cardiotoxicity” (Auransa Inc., priority 2016, dated 2023)", "key": {"[1]": {"target": "T1, TOPOIIα (Homo sapiens, UniProt P11388)", "T1 construct": "purchased Inspiralis", "T1 sequence (P11388 whole entry)": "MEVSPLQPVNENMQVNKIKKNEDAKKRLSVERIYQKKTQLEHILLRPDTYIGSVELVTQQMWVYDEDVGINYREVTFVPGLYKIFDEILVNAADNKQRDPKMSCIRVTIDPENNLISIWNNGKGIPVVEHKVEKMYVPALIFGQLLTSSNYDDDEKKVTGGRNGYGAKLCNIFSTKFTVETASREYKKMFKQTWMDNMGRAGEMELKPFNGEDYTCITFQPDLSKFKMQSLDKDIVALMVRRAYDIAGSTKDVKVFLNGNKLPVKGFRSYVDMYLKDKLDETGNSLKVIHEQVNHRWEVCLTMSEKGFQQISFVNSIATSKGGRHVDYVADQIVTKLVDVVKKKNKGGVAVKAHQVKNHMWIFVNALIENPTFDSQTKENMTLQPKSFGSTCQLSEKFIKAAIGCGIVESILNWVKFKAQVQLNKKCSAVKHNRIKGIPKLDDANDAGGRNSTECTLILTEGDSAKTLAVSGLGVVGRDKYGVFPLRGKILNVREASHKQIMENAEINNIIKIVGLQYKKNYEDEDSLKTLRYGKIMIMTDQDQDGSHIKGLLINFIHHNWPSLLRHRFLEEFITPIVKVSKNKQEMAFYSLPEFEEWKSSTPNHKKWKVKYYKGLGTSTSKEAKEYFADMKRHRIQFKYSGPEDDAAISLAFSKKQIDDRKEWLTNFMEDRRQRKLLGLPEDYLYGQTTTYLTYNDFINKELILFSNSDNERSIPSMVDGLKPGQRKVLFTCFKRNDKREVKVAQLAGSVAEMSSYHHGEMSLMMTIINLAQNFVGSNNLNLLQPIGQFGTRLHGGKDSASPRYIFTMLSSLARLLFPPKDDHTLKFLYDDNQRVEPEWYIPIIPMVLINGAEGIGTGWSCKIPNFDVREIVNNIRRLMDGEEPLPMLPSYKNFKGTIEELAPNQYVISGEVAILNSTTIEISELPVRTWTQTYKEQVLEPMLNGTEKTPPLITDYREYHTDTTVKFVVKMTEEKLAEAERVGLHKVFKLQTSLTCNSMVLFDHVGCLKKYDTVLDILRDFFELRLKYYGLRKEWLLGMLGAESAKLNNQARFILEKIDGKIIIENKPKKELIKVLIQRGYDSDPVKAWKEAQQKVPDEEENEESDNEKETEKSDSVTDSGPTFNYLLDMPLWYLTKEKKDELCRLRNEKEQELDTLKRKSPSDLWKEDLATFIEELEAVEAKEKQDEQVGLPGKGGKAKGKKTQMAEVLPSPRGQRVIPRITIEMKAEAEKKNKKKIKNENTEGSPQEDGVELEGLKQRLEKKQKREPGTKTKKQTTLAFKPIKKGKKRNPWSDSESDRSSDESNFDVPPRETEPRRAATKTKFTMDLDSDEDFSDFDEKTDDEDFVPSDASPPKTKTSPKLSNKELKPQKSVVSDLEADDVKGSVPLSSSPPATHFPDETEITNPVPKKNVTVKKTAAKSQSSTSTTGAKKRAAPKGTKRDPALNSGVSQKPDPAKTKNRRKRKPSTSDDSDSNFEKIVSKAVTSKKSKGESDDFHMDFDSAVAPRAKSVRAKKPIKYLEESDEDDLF", "assay": "kDNA decatenation assay, TOPOIIα;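 note: kDNA incubated with one unit of TOPOIIα at 37 °C for 30 min, decatenated product resolved on 1% agarose gel, inhibition from relative band intensity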", "type": "biochemical", "settings": "for TOPOIIα inhibition, in words: decatenation assay"}, "[2]": {"target": "T2, TOPOIIβ (Homo sapiens, UniProt Q02880)", "T2 construct": "purchased Inspiralis", "T2 sequence (Q02880 whole entry)": "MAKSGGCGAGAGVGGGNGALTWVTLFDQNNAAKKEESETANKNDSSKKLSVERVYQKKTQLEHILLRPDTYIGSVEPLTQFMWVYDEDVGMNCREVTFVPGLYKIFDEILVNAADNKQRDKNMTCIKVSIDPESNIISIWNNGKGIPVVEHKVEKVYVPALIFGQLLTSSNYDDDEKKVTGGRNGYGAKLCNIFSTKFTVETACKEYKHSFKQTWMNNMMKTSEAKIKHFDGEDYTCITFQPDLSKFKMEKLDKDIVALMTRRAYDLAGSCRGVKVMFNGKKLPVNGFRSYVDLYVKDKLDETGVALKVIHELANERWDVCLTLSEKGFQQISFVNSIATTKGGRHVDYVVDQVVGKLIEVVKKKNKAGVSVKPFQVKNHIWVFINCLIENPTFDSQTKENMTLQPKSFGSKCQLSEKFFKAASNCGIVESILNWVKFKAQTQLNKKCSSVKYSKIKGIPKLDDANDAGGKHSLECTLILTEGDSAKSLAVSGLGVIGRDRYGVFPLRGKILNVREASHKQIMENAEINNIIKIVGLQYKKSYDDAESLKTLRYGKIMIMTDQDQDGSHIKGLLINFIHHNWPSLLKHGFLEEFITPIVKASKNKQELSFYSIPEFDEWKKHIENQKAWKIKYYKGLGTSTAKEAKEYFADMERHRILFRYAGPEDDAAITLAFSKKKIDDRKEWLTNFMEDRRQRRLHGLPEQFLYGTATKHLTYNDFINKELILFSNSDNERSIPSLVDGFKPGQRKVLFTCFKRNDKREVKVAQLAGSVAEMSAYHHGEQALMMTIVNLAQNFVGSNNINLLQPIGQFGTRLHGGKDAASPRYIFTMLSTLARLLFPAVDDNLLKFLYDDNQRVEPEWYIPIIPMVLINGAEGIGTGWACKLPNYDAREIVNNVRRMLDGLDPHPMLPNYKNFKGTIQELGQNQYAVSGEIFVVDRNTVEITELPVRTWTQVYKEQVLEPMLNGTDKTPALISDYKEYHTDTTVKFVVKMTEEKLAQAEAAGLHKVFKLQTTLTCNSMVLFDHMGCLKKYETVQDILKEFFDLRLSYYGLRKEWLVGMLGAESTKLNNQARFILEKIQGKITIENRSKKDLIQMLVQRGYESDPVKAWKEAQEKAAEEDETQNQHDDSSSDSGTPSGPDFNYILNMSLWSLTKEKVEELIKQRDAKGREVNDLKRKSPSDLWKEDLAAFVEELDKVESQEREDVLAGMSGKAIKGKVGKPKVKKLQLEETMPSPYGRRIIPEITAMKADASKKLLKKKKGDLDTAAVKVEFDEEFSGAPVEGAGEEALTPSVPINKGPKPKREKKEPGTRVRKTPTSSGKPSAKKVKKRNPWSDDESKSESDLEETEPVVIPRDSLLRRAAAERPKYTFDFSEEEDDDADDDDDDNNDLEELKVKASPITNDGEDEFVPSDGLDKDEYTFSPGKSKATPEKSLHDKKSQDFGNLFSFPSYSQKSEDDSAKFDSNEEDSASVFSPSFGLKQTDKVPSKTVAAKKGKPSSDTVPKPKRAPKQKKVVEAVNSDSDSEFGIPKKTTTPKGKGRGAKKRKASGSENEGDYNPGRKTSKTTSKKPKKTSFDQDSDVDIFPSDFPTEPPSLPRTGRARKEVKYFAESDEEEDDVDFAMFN", "assay": "kDNA decatenation assay, TOPOIIβ;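 note: kinetoplast DNA incubated with one unit of TOPOIIβ at 37 °C for 30 min, decatenated product resolved on 1% agarose gel, inhibition scored from relative band intensity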", "type": "biochemical", "settings": "for TOPOIIβ inhibition, in words: decatenation assay"}, "[3]": {"system": "Doxorubicin treated human iPSC-derived cardiomyocytes", "assay": "iPSC-CM protection by myricetin analogs (Table 1)", "type": "cell-based", "settings": "for cardioprotection, in words: Table 1"}, "[4]": {"settings": "Homo sapiens, iPSC-CM, initial screen at 10 μM or 100 μM, read-out: iPSC-CM protection Max Effect (%), class symbol"}, "[5]": {"settings": "Homo sapiens, iPSC-CM, read-out: iPSC-CM protection Max Effect (%), class symbol"}}, "note": "Where two headings read alike, the source gives them in different places.", "data": [{"smiles": "O=C1c2ccc(O)cc2OC(c2cc(O)c(O)c(O)c2)C1O", "note": "(stereo in doubt) [Compound 30, dihydrorobinetin]", "values": [{"measurement": "TOPIIα Inhibition", "setting": "[1]", "value": "−"}, {"measurement": "TOPOIIα inhibition, in words", "setting": "[1]", "value": "no inhibitory activity"}, {"measurement": "TOPIIβ Inhibition", "setting": "[2]", "value": "−"}, {"measurement": "TOPOIIβ inhibition, in words", "setting": "[2]", "value": "no inhibitory activity"}, {"measurement": "iPSC-CM protection Max Effect (%)", "setting": "[3]", "value": 53, "unit": "%"}, {"measurement": "EC50", "setting": "[3]; read-out: iPSC-CM protection EC50", "value": 14, "unit": "µM"}]}, {"smiles": "COc1ccc2c(=O)c(OC)c(-c3cc(OC)c(OC)c(OC)c3)oc2c1", "note": "[3,7,3′,4′,5′-O-pentamethylrobinetin]", "values": [{"measurement": "TOPOIIα inhibition, in words", "setting": "[1]", "value": "entirely failed to display cardioprotection or TOPOII inhibition"}, {"measurement": "TOPOIIβ inhibition, in words", "setting": "[2]", "value": "entirely failed to display cardioprotection or TOPOII inhibition"}, {"measurement": "cardioprotection, in words", "setting": "[3]", "value": "entirely failed to display cardioprotection or TOPOII inhibition"}]}, {"smiles": "COc1cc(-c2oc3cc(O)cc(O)c3c(=O)c2O)cc(OC)c1OC", "note": "[3′,4′,5′-O-trimethylmyricetin]", "values": [{"measurement": "TOPOIIα inhibition, in words", "setting": "[1]", "value": "entirely failed to display cardioprotection or TOPOII inhibition"}, {"measurement": "TOPOIIβ inhibition, in words", "setting": "[2]", "value": "entirely failed to display cardioprotection or TOPOII inhibition"}, {"measurement": "cardioprotection, in words", "setting": "[3]", "value": "entirely failed to display cardioprotection or TOPOII inhibition"}]}, {"smiles": "O=c1cc(-c2cc(O)c(O)c(O)c2)oc2ccccc12", "note": "[3′,4′,5′-trihydroxyflavone]", "values": [{"measurement": "EC50", "setting": "[3]; Homo sapiens, Cardiomyocyte, read-out: potency for cardioprotection", "value": "≥ 30", "unit": "µM"}]}, {"smiles": "O=c1c(O)c(-c2ccc(O)c(O)c2)oc2cc(O)ccc12", "note": "[Compound 5, 3,7,3′,4′-tetrahydroxyflavone]", "values": [{"measurement": "EC50", "setting": "[3]; Homo sapiens, iPSC-CM, read-out: iPSC-CM protection EC50", "value": 16.3, "unit": "µM"}, {"measurement": "Emax", "setting": "[3]; Homo sapiens, iPSC-CM, read-out: iPSC-CM protection Max Effect (%)", "value": 36, "unit": "%"}]}, {"smiles": "O=c1cc(-c2ccc(O)cc2)oc2cc(O)cc(O)c12", "note": "[Compound 13, 5,7,4′,-trihydroxyflavone]", "values": [{"measurement": "Rescue", "setting": "[3]", "value": "−"}, {"measurement": "Emax", "setting": "[3]; [4]", "value": "< 30", "unit": "%"}]}, {"smiles": "O=c1cc(-c2ccc(O)c(O)c2)oc2ccccc12", "note": "[Compound 14, 3′,4′-dihydroxyflavone]", "values": [{"measurement": "Rescue", "setting": "[3]", "value": "−"}, {"measurement": "Emax", "setting": "[3]; [4]", "value": "< 30", "unit": "%"}]}, {"smiles": "O=c1cc(-c2ccc(O)cc2)oc2cc(O)ccc12", "note": "[Compound 15, 7,4′-dihydroxyflavone]", "values": [{"measurement": "Rescue", "setting": "[3]", "value": "−"}, {"measurement": "Emax", "setting": "[3]; [4]", "value": "< 30", "unit": "%"}]}, {"smiles": "O=c1c(O)c(-c2ccc(O)cc2)oc2ccccc12", "note": "[Compound 16, 3,4′-dihydroxyflavone]", "values": [{"measurement": "Rescue", "setting": "[3]", "value": "−"}, {"measurement": "Emax", "setting": "[3]; [4]", "value": "< 30", "unit": "%"}]}, {"smiles": "O=c1cc(-c2ccc(O)cc2)oc2ccccc12", "note": "[Compound 17, 4′-hrydroxyflavone]", "values": [{"measurement": "Rescue", "setting": "[3]", "value": "−"}, {"measurement": "iPSC-CM protection Max Effect (%), class symbol", "setting": "[3]; initial screen at 10 μM or 100 μM", "value": "† (Compounds failed to exhibit >30% protection Max Effect at 10 μM or 100 μM on initial screen.)"}]}, {"smiles": "O=c1c(O)c(-c2cccc(O)c2)oc2cc(O)ccc12", "note": "[Compound 18, 3,7,3′-trihydroxyflavone]", "values": [{"measurement": "Rescue", "setting": "[3]", "value": "−"}, {"measurement": "Emax", "setting": "[3]; [4]", "value": "< 30", "unit": "%"}]}, {"smiles": "O=c1c(O)c(-c2ccccc2)oc2cc(O)cc(O)c12", "note": "[Compound 19, 3,5,7-trihydroxyflavone]", "values": [{"measurement": "Rescue", "setting": "[3]", "value": "−"}, {"measurement": "Emax", "setting": "[3]; [4]", "value": "< 30", "unit": "%"}]}, {"smiles": "O=c1c(O)c(-c2ccccc2)oc2cc(O)ccc12", "note": "[Compound 20, 3,7-dihydroxyflavone]", "values": [{"measurement": "Rescue", "setting": "[3]", "value": "−"}]}, {"smiles": "O=c1cc(-c2cccc(O)c2)oc2cc(O)ccc12", "note": "[Compound 21, 7,3′-dihydroxyflavone]", "values": [{"measurement": "Rescue", "setting": "[3]", "value": "−"}, {"measurement": "Emax", "setting": "[3]; [4]", "value": "< 30", "unit": "%"}]}, {"smiles": "O=c1c(O)c(-c2cccc(O)c2)oc2ccccc12", "note": "[Compound 22, 3,3′-dihydroxyflavone]", "values": [{"measurement": "Rescue", "setting": "[3]", "value": "−"}, {"measurement": "Emax", "setting": "[3]; [4]", "value": "< 30", "unit": "%"}]}, {"smiles": "O=c1cc(-c2ccccc2)oc2cc(O)cc(O)c12", "note": "[Compound 23, 5,7-dihydroxyflavone]", "values": [{"measurement": "Rescue", "setting": "[3]", "value": "−"}, {"measurement": "Emax", "setting": "[3]; [4]", "value": "< 30", "unit": "%"}]}, {"smiles": "O=c1cc(-c2ccccc2)oc2cc(O)ccc12", "note": "[Compound 24, 7-hydroxyflavone]", "values": [{"measurement": "Rescue", "setting": "[3]", "value": "−"}, {"measurement": "Emax", "setting": "[3]; [5]", "value": "< 30", "unit": "%"}]}, {"smiles": "O=c1c(O)c(-c2ccccc2)oc2ccccc12", "note": "[Compound 25, 3-hydroxyflavone]", "values": [{"measurement": "Rescue", "setting": "[3]", "value": "−"}, {"measurement": "Emax", "setting": "[3]; [4]", "value": "< 30", "unit": "%"}]}, {"smiles": "O=c1cc(-c2cc(O)cc(O)c2)oc2ccccc12", "note": "[Compound 26, 3′,5′-dihydroxyflavone]", "values": [{"measurement": "Rescue", "setting": "[3]", "value": "−"}, {"measurement": "Emax", "setting": "[3]; [5]", "value": "< 30", "unit": "%"}]}, {"smiles": "O=c1cc(-c2cccc(O)c2)oc2ccccc12", "note": "[Compound 27, 3′-hydroxyflavone]", "values": [{"measurement": "Rescue", "setting": "[3]", "value": "−"}, {"measurement": "Emax", "setting": "[3]; [4]", "value": "< 30", "unit": "%"}]}, {"smiles": "O=c1cc(-c2ccccc2)oc2ccccc12", "note": "[Compound 28, flavone]", "values": [{"measurement": "Rescue", "setting": "[3]", "value": "−"}, {"measurement": "Emax", "setting": "[3]; [4]", "value": "< 30", "unit": "%"}]}]}
